In patent publication EP0345629A2, “Condensed diazepinones, process for their preparation and medicaments containing them” (Dr. Karl Thomae GmbH, priority 1988, dated 1989):
Where two headings read alike, the source gives them in different places.

What was measured:
vagale Bradykardie (M2) = test: M1/M2 selectivity in the rat: inhibition of bradycardia evoked by electrical vagus stimulation; format: in vivo, männliche THOM-Ratten; settings: iv; for ED50: 5 min
From the text: (§1) 1. M1-/M2-Selektivität an der Ratte
(§2) Die Dosis der Substanzen, die entweder die vagale Bradykardie (M2) oder den Blutdruckanstieg (M,) um 50% verminderte, wurde graphisch ermittelt. Ergebnisse siehe Tabelle 11.

Speichelsekretion = test: Inhibition of pilocarpine-induced salivary secretion in the rat; format: in vivo, männliche THOM-Ratten; settings: iv; urethane-anaesthetised rat, i.v.; 2 mg/kg Pilocarpin s.c.; dose reducing saliva volume by 50 %; read-out: -log ED50 Salivationshemmung (converted)
Experimental: 2. Speichelsekretionshemmende Wirkung an der Ratte
Nach Lavy und Mulder (Arch. int. Pharmacodyn. 178, 437-445, (1969)) erhielten mit 1,2 g/kg Urethan narkotisierte männliche THOM-Ratten steigende Dosen der Substanz i.v.. Die Speichelsekretion wurde durch s.c. Gabe von 2 mg/kg Pilocarpin ausgelöst. Der Speichel wurde mit Fließpapier aufgesaugt, die von ihm eingenommene Fläche alle 5 Minuten planimetrisch bestimmt. Die Dosis der Substanz, die das Speichelvolumen um 50% verminderte, wurde graphisch ermittelt. Ergebnisse siehe Tabelle 11.

[1] = test system: durch McN-A-343 verursachte Blutdruckanstieg (M,); test: M1/M2 selectivity in the rat: inhibition of blood pressure rise caused by McN-A-343; format: in vivo, männliche THOM-Ratten; settings: for ED50: iv, 5 min, rat, i.v., 5 min after injection, dose reducing the blood pressure rise after 0,3 mg/kg McN-A-343 i.v. (M1) by 50 %, read-out: -log ED50 Blutdruck (converted)
From the text: as §1, §2

[2] = Solubility in water (remark in the synthesis example); format: physicochemical
[3] = test system: Acetylcholinwirkung auf Bronchien; test: Inhibition of the acetylcholine effect on bronchi (expiratory resistance, Konzett-Rößler) in the anaesthetised guinea pig; format: in vivo, Meerschweinchen; settings: for ED50: Cavia porcellus, 5 min, anaesthetised guinea pig, 10 µg/kg Acetylcholin 5 min after test substance, expiratory resistance, read-out: -log ED50 Bronchien (converted)
Experimental: (§3) 3. Hemmung der Acetylcholinwirkung auf Blase, Bronchien und Herzfrequenz des Meerschweinchens
(§4) Am narkotisierten Meerschweinchen wurden 5 Minuten nach Gabe der Prüfsubstanz 10 µg/kg Acetylcholin sowohl intravenös als auch gleichzeitig intraarteriell injiziert. Dabei wurde die Herzfrequenz durch extrakorporale Ableitung des EKG, der Ausatemwiderstand nach Konzett-Rößler und die Kontraktion der freigelegten Harnblase direkt registriert. Für die Hemmung der Acetylcholinwirkung an den untersuchten Organen wurden Dosis-Wirkungskurven aufgenommen und daraus -log EDso-Werte bestimmt. Ergebnisse siehe Tabelle III.

[4] = test system: Acetylcholinwirkung auf Herzfrequenz; test: Inhibition of the acetylcholine effect on heart rate in the anaesthetised guinea pig; format: in vivo, Meerschweinchen; settings: for ED50: Cavia porcellus, 5 min, anaesthetised guinea pig, 10 µg/kg Acetylcholin 5 min after test substance, heart rate (ECG)
Experimental: as §3, §4

[5] = test system: Acetylcholinwirkung auf Blase; test: Inhibition of the acetylcholine effect on bladder contraction in the anaesthetised guinea pig; format: in vivo, Meerschweinchen; settings: for ED50: Cavia porcellus, 5 min, anaesthetised guinea pig, 10 µg/kg Acetylcholin 5 min after test substance, bladder contraction, read-out: -log ED50 Blase (converted)
Experimental: as §3, §4

[6] = rat, i.v., 5 min after injection, dose reducing vagal bradycardia (M2) by 50 %, read-out: -log ED50 Herz (converted)

Löslichkeit in Wasser [2]	SMILES	ED50 (Speichelsekretion)	ED50 [1]	ED50 [3]	ED50 [4]	ED50 (vagale Bradykardie (M2); [6])	ED50 [5]	also measured
–	CCN(CC)CC1CCCCN1CC(=O)N1c2ccccc2C(=O)Nc2cccnc21 (stereo not drawn) [D, 11-[[2-[(Diethylamino)methyl]-1-piperidinyl]acetyl]-5,11-dihydro-6H-pyrido[2,3-b][1,4]-benzodiazepin-6-on, reference compound]	10 µmol/kg	2.34 µmol/kg	–	–	–	–	ED50 (vagale Bradykardie (M2); Rattus norvegicus, read-out: -log ED50 Herz): 0.38 µmol/kg
löslich in Wasser	CN(C)CCC1CCCCN1CCCC(=O)N1c2ccccc2C(=O)Nc2cccnc21 (stereo not drawn) [Beispiel 4, 5,11-Dihydro-11-[4-[2-[2-(dimethylamino)ethyl]-1-piperidinyl]-1-oxobutyl]-6H-pyrido[2,3-b][1,4]benzodiazepin-6-on]	–	–	–	–	–	–	–
–	O=C1Nc2cccnc2N(C(=O)CCCN2CCCCC2CN2CCCC2)c2ccccc21 (stereo not drawn) [C, 5, 11-Dihydro-11-[4-[2-[(1-pyrrolidinyl)methyl]-1-piperidinyl]-1-oxobutyl]-6H-pyrido[2,3-b][1,4]-benzodiazepin-6-on]	1.66 µmol/kg	0.219 µmol/kg	0.0513 µmol/kg	0.0275 µmol/kg	0.0468 µmol/kg	0.316 µmol/kg	–
–	CN1CCN(CC(=O)N2c3ccccc3C(=O)Nc3cccnc32)CC1 [E, 5,11-Dihydro-11-[(4-methyl-1-piperazinyl)acetyl]-6H-pyrido[2,3-b][1,4]benzodiazepin-6-on, reference compound]	0.603 µmol/kg	–	–	–	–	–	–
–	CN1C2CCC1CC(OC(=O)C(CO)c1ccccc1)C2 (racemic) [F, Atropin, reference compound]	–	–	–	–	–	–	-log ED50 Bronchien ([3]; in vivo): 7,96 Molkg^-1; -log ED50 Herz ([4]; in vivo): 7,70 Molkg^-1; -log ED50 Herz (vagale Bradykardie (M2); in vivo): 7,94 Mkg^-1; -log ED50 Blase ([5]; in vivo): 7,03 Molkg^-1; -log ED50 Blutdruck ([1]; in vivo): 7,34 Mkg^-1
–	CCN(CC)CC1CCCCN1CCCC(=O)N1c2cc(C)ccc2C(=O)Nc2cccnc21 (stereo not drawn) [B, 11-[4-[2-[(Diethylamino)methyl]-1-piperidinyl]-1-oxobutyl]-5,11-dihydro-9-methyl-6H-pyrido[2,3-b][1,4]benzodiazepin-6-on]	1.12 µmol/kg	0.501 µmol/kg	0.151 µmol/kg	0.0708 µmol/kg	0.0617 µmol/kg	0.759 µmol/kg	–
leicht löslich in Wasser	CCN(CC)CC1COCCN1CCCC(=O)N1c2ccccc2C(=O)Nc2cccnc21 (stereo not drawn) [A, 11-[4-[3-[(Diethylamino)methyl]-4-morpholinyl]-1-oxobutyl]-5,11-dihydro-6H-pyrido[2,3-b][1,4]-benzodiazepin-6-on]	1.1 µmol/kg	0.55 µmol/kg	0.0708 µmol/kg	0.0282 µmol/kg	0.0513 µmol/kg	1 µmol/kg	–
in Wasser schwer lösliches	CCN(CC)CC1CCCCN1CCCC(=O)N1c2ccc(Br)cc2C(=O)Nc2cccnc21 (stereo not drawn) [Beispiel 7, 8-Brom-11-[4-[2-[(diethylamirio)methyl]-1-piperidinyl]-1-oxobutyl]-5,11-dihydro-6H-pyrido[2,3-b][1,4]-benzodiazepin-6-on]	–	–	–	–	–	–	–
